Source: patent US20240117431A1, “STEM-CELL BASED BIOMARKER DISCOVERY” (THE REGENTS OF THE UNIVERSITY OF CALIFORNIA, priority 2020, published 2024)

Target: T1, wild-type (WT) TgUPRT in HEK cells (Toxoplasma gondii, UniProt Q26998)
T1 construct: 6xHis; expressed in transfected cells; host or cells: HEK293 (HEK293T)
Test: In-cell RNA incorporation by wild-type TgUPRT, streptavidin dot blot
Type: cell-based
Protocol: Transfection, labeling of cellular RNA and RNA isolation: After 48h seeding, HEK293 cells were transfected with 2.5 μg of TgUPRT WT or mutant plasmids (pKN-CMV-TgUPRT-WT or -Mutt to Mut17) per 5 cm plate using JetPrime Transfection reagent (Polyplus Transfection, France). At 40h post-transfection, cells were incubated with a final concentration of 200 μM at <1% DMSO from 400 mM stock of uracil analogs (5EU, 5VU, 5AU) or 200 mM SAMU stock for 5 h. For time course study, HEK cells were treated with 200 μM uracil analogs for 0 h, 0.5, 1, 3, 5, 12 and 24 hours. For titrating uracil analog concentration experiments, HEK cells were treated with 0 (DMSO), 50, 100, 200, 500 μM or 1 mM uracil analog for 5h. Treated HEK cells were subjected to total RNA extraction using 1 mL Trizol Reagent (Invitrogen) following the manufacturer instructions.
Biotinylation via CuAAC and IEDDA: Cu-mediated Azide-Alkyne cycloaddition (CuAAC) click reactions were performed in 50 μL reaction at 22° C. on a shaker for 30 min with click reaction cocktail containing 15 μg of total RNA, 1 mM biotin alkyne or biotin azide, fresh 4.6 mM THPTA to a final concentration of 1 mM, and fresh 10.6 mM sodium ascorbate (NaAsc) at final concentration of 1.77 mM, and 12 mM CuSO4 at final concentration of 200 μM in biotinylation reaction buffer (10 mM TrisHCI, 1 mM EDTA, pH7.4). The biotinylated RNA was purified using RNA clean & Concentrator-5 kit (Zymo Research, Cat #R1013) according to the manufacturer instructions and eluted in 21 μL of nuclease free water.
Inverse electron demand [4+2] Diels-Alder cycloaddition (IEDDA) click reactions were performed in 50 μL at 37° C. or 22° C. (RT) for 3h on mixer at 500 rpm containing 10-15 μg of total RNA, 1 mM final concentration of biotin-benzyl tetrazine (Sigma Aldrich, Cat #793329-5MG) in nuclease free water. Clicked total RNA was purified using RNA clean & Concentrator-5 kit (Zymo Research, Cat #R1013) according to the manufacturer instructions, and RNA was eluted in 21 μL of nuclease free water.
HRP-streptavidin dot blot analysis: All gel reagents were from Bio-Rad. […]

T1 sequence (Q26998 whole entry): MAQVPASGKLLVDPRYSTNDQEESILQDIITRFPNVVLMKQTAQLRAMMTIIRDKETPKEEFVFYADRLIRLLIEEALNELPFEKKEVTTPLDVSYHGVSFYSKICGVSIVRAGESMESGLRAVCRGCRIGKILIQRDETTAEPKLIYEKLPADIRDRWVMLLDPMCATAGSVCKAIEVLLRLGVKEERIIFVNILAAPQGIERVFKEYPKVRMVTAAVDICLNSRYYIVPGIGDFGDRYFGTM

SMILES | TgUPRT-dependent incorporation into cellular RNA (wild-type TgUPRT active site) | analog incorporation over time with wild-type TgUPRT (200 μM, long periods of incubation, FIG. 9B)
C#Cc1c[nH]c(=O)[nH]c1=O [compound 1, 5-ethynylpyrimidine-2,4(1H,3H)-dione] | capable of such transformations | 
C=Cc1c[nH]c(=O)[nH]c1=O [compound 2, 5-Vinylpyrimidine-2,4(1H,3H)-dione] |  | did not result in any observed incorporation
